Measured values reported in ChEMBL document CHEMBL1201862, “PubChem BioAssay data set” (2004).
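96-well plates; 48 h exposure; 5 concentrations. Endpoints by linear interpolation between flanking doses. Not reached: highest tested concentration assigned. Here, GI50 denotes the concentration required for 50% inhibition of growth.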 The source made the active and inactive calls. Rule as the data show it: active = GI50 up to about 1.1 µM and inactive = higher.

Legend:
Test in all cases: NCI-60 cell line screen, 48 h
A498 = test system: A498
ACHN = test system: ACHN
HL-60 = test system: HL-60
HOP-62 = test system: HOP-62
HT-29 = test system: HT-29
Hs-578T = test system: Hs-578T
MDA-N = test system: MDA-N
NCI-H226 = test system: NCI-H226
NCI-H460 = test system: NCI-H460
OVCAR-3 = test system: OVCAR-3
OVCAR-4 = test system: OVCAR-4
PC-3 = test system: PC-3
RXF 393 = test system: RXF 393
SK-MEL-5 = test system: SK-MEL-5
SNB-75 = test system: SNB-75
SR = test system: SR
SW-620 = test system: SW-620
T47D = test system: T47D
TK-10 = test system: TK-10
UO-31 = test system: UO-31

Row | Compound | GI50 (A498) | GI50 (ACHN) | GI50 (HL-60) | GI50 (HOP-62) | GI50 (HT-29) | GI50 (Hs-578T) | GI50 (MDA-N) | GI50 (NCI-H226) | GI50 (NCI-H460) | GI50 (OVCAR-3) | GI50 (OVCAR-4) | GI50 (PC-3) | GI50 (RXF 393) | GI50 (SK-MEL-5) | GI50 (SNB-75) | GI50 (SR) | GI50 (SW-620) | GI50 (T47D) | GI50 (TK-10) | GI50 (UO-31)
1 | Cc1ccc2c(n1)C(=O)c1cc(C)c(C)cc1C2=O | > 100 µM (inactive) | > 100 µM (inactive) | 36 µM (inactive) | > 100 µM (inactive) | 36.9 µM (inactive) | 44.2 µM (inactive) | > 100 µM (inactive) | > 100 µM (inactive) | 10.6 µM (inactive) | 20.5 µM (inactive) | 70.3 µM (inactive) | > 100 µM (inactive) | 34 µM (inactive) | 12.4 µM (inactive) | 27.5 µM (inactive) | 30.2 µM (inactive) | 73.6 µM (inactive) | 49.5 µM (inactive) | > 100 µM (inactive) | 57.8 µM (inactive)
2 | COc1ccc(Nc2n[nH]c(NS(=O)(=O)c3cc(C)c(Cl)cc3S)n2)cc1 | > 100 µM (inactive) | > 100 µM (inactive) | > 100 µM (inactive) | > 100 µM (inactive) | > 100 µM (inactive) | > 100 µM (inactive) | > 100 µM (inactive) | > 100 µM (inactive) | > 100 µM (inactive) | > 100 µM (inactive) | > 100 µM (inactive) | > 100 µM (inactive) | > 100 µM (inactive) | > 100 µM (inactive) | > 100 µM (inactive) | > 100 µM (inactive) | > 100 µM (inactive) | > 100 µM (inactive) | > 100 µM (inactive) | > 100 µM (inactive)
3 | NC(=S)N1N=C2c3ccccc3CCC[C@H]2[C@@H]1c1ccccc1 | 3.1 µM (inactive) | 5.07 µM (inactive) | 0.589 µM (active) | 2.2 µM (inactive) | 0.867 µM (active) | 0.552 µM (active) | 0.0531 µM (active) | 2.6 µM (inactive) | 1.07 µM (active) | 0.661 µM (active) | 5 µM (inactive) | 1.1 µM (active) | 1.7 µM (inactive) | 0.664 µM (active) | 0.211 µM (active) | 0.249 µM (active) | 0.385 µM (active) | 10 µM (inactive) | 10.3 µM (inactive) | 1.9 µM (inactive)
4 | C[C@H]1CC(=O)[C@@]2(O)C#C/C=C\C#C[C@@H]3Nc4c(cc(O)c5c4C(=O)c4ccccc4C5=O)[C@]24O[C@]314 | 0.0586 µM (active) | < 0.001 µM (active) | < 0.001 µM (active) | 0.00159 µM (active) | 0.0619 µM (active) | 0.811 µM (active) | 0.0309 µM (active) | 0.00356 µM (active) | < 0.001 µM (active) | 0.136 µM (active) | 0.271 µM (active) | 0.259 µM (active) | 0.0114 µM (active) | 0.00266 µM (active) | 0.0316 µM (active) | 0.00256 µM (active) | 0.0153 µM (active) | 0.0305 µM (active) | 0.0574 µM (active) | < 0.001 µM (active)
5 | COc1cc(CNc2nc3ccccc3nc2-c2cccs2)cc(OC)c1OC | 18.6 µM (inactive) | 13.9 µM (inactive) | 14 µM (inactive) | 21.4 µM (inactive) | 26.9 µM (inactive) | 12.6 µM (inactive) | 16.3 µM (inactive) | 29.5 µM (inactive) | 10.5 µM (inactive) | 22.6 µM (inactive) | 2.84 µM (inactive) | 11.6 µM (inactive) | 14 µM (inactive) | 12.5 µM (inactive) | > 100 µM (inactive) | 6.87 µM (inactive) | 36.7 µM (inactive) | 7.48 µM (inactive) | 33.8 µM (inactive) | 5.09 µM (inactive)
6 | Cc1nn(-c2ccccc2)c(C)c1/C=N/NC(=O)c1sc(=S)n(-c2ccc(Cl)cc2)c1N | 6.18 µM (inactive) | 4.18 µM (inactive) | 8.17 µM (inactive) | 6.44 µM (inactive) | 5.05 µM (inactive) | 2.4 µM (inactive) | 11.5 µM (inactive) | 34.5 µM (inactive) | 4.83 µM (inactive) | 60.3 µM (inactive) | 3.94 µM (inactive) | 4.07 µM (inactive) | 2.15 µM (inactive) | 4.03 µM (inactive) | 1.48 µM (inactive) | 3.73 µM (inactive) | > 100 µM (inactive) | 16.5 µM (inactive) | 1.87 µM (inactive) | 4.33 µM (inactive)
7 | Cc1ccc(S(=O)(=O)N(CC(O)COc2ccccc2)c2ccc(F)cc2F)cc1 (stereo not given) | 15.3 µM (inactive) | 16.5 µM (inactive) | 15.7 µM (inactive) | 15.5 µM (inactive) | 14.9 µM (inactive) | 17.3 µM (inactive) | 15.5 µM (inactive) | 18.8 µM (inactive) | 15.8 µM (inactive) | 15.3 µM (inactive) | 11.6 µM (inactive) | 12.8 µM (inactive) | 11.9 µM (inactive) | 14.7 µM (inactive) | 14.8 µM (inactive) | 22.5 µM (inactive) | 16.5 µM (inactive) | 17.2 µM (inactive) | 21.5 µM (inactive) | 13.9 µM (inactive)
8 | COc1cc2c3c(cc(Cl)nc3c1OC)C(O)(CC(=O)c1ccccc1)C(=O)N2 (stereo not given) | 18.4 µM (inactive) | 14.9 µM (inactive) | 1.49 µM (inactive) | 19.2 µM (inactive) | 21.7 µM (inactive) | 21.7 µM (inactive) | 1.93 µM (inactive) | 21.5 µM (inactive) | 21 µM (inactive) | 15.6 µM (inactive) | 2.35 µM (inactive) | 15.3 µM (inactive) | 13.4 µM (inactive) | 15.9 µM (inactive) | 14.8 µM (inactive) | 4.65 µM (inactive) | 4 µM (inactive) | 3.56 µM (inactive) | 18.1 µM (inactive) | 13.3 µM (inactive)
9 | C=C(C)[C@@H]1CCC2=C(CC[C@]3(C)[C@@H]([C@@H](CCC=C(C)C)C(=O)O)[C@H](O)C[C@@]23C)[C@@]1(C)CCC(=O)O [PORICOIC ACID G] | > 100 µM (inactive) | 75.2 µM (inactive) | 0.0393 µM (active) | 53.2 µM (inactive) | 47.4 µM (inactive) | > 100 µM (inactive) | 86.3 µM (inactive) | 57.3 µM (inactive) | 46.8 µM (inactive) | > 100 µM (inactive) | > 100 µM (inactive) | 45.6 µM (inactive) | 41.4 µM (inactive) | 92.7 µM (inactive) | 60.5 µM (inactive) | 29.4 µM (inactive) | > 100 µM (inactive) | > 100 µM (inactive) | > 100 µM (inactive) | > 100 µM (inactive)
